Test results taken from patent US20260014133A1, “SUBSTITUTED 3-(l-OXOISOINDOLIN-2-YL)PIPERIDINE-2,6-DIONE/2-(2,6-DIOXOPIPERIDIN-3-YL)ISOINDOLINE-l,3-DIONE ANALOGS AS MODULATORS OF CEREBLON PROTEIN” (St. Jude's Chidren's Research Hospital, Inc., priority 2022, published 2026).

molecular target: 6×His-CRBN-DDB1 protein (Homo sapiens (Human), UniProt Q96SW2); experiment: CRBN Fluorescence Polarization Assay; assay type: binding; conditions: competitive fluorescence polarization; Cy5-O-Len probe 30 nM, 6×His-CRBN-DDB1 200 nM; 1 hour at room temperature; mean of three independent determinations; read-out: CRBN FP (IC50)
Sequence (Q96SW2 whole entry): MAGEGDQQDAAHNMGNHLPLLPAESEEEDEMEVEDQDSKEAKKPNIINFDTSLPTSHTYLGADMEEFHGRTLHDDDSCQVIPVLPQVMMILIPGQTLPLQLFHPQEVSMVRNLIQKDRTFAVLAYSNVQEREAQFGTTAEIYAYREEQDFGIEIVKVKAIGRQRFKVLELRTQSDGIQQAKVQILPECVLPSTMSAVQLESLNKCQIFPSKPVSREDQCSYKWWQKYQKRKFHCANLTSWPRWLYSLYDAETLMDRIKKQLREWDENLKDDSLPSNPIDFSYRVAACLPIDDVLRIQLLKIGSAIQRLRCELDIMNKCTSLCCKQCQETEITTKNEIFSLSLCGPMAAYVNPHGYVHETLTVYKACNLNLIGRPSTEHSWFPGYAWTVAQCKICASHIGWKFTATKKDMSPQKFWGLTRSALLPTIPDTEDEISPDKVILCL
Sequence (Q16531 whole entry partner): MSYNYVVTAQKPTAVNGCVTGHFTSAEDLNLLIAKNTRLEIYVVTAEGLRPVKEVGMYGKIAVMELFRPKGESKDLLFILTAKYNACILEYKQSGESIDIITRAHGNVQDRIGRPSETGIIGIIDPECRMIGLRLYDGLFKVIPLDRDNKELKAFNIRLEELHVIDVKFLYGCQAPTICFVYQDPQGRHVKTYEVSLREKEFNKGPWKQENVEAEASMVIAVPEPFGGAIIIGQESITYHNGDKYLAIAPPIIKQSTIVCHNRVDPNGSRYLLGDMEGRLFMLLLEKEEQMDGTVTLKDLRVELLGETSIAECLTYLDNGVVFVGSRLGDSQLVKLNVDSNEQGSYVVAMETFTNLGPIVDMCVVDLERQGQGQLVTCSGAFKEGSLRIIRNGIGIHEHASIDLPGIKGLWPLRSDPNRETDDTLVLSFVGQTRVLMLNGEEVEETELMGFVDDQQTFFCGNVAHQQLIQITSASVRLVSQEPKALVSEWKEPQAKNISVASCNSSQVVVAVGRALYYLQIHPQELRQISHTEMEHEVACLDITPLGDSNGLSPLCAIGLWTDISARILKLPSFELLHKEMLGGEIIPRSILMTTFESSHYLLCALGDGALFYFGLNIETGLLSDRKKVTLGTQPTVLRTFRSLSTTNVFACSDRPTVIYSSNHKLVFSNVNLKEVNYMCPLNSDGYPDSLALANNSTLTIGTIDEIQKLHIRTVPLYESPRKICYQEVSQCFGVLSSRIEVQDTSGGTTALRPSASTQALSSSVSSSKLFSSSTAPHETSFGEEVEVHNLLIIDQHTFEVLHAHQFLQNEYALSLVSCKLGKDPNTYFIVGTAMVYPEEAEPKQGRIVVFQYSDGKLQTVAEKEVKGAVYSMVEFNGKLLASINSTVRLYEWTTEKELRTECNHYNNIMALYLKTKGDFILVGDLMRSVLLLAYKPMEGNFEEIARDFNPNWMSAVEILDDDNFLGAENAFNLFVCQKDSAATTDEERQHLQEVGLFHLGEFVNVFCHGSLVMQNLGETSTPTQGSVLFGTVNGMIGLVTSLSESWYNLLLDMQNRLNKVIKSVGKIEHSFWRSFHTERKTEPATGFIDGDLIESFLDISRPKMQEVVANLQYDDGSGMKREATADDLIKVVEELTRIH
Procedure: In this competitive fluorescent polarization assay Cy5 conjugated lenalidomide analog (Cy5-O-Len)^13 was used as a fluorescent probe. 6×His-CRBN-DDB1 protein (200 nM) and Cy5-O-Len probe (30 nM) were combined in 20 mM HEPES pH 7, 150 mM NaCl, 0.005% Tween-20 assay buffer. 20 μL of this assay cocktail was dispensed into wells of Corning 3821 black 384-well plates. Compounds were transferred to the assay plate from a dose-response plate using a Pintool on a Biomek FXP Laboratory Automation Workstation (Beckman Coulter). The plates were incubated in the dark for 1 hour at room temperature and then read on an Envision plate reader (PerkinElmer, Massachusetts, USA). IC50 values were determined using a proprietary software RISE (Robust Investigation of Screening Experiments), developed in house on the Pipeline Pilot platform (Biovia, v. 17.2.0). Data represent the mean of three independent determinations.
Cereblon binding activity was determined as described herein above, and the results are provided below in Table 2 for representative disclosed compounds. Compound number (“Cmpd No.”) refers to the compound number (and associated compound information such as structure, name, etc.) as provided in Table 1. In Table 2 below: cereblon binding IC50 values are categorized as follows: “A” represents IC50 value<1 μM, “B” represents IC50 value between 1 and 10 μM, and “C” represents IC50 value>10 μM.

| SMILES | IC50 |
| --- | --- |
| Cc1ccc(C(=O)Nc2ccc3c(c2)C(=O)N(C2CCC(=O)NC2=O)C3=O)cc1 (stereo not shown) [Compound 1, N-(2-(2,6-dioxopiperidin-3-yl)-1,3-dioxolsoindolin-5-yl)-4-methylbenzamide] | 1000 to 10000 nM |
| Cc1ccc(C(=O)Nc2ccc3c(c2)CN(C2CCC(=O)NC2=O)C3=O)cc1 (stereo not shown) [Compound 2, N-(2-(2,6-dioxopiperidin-3-yl)-1-oxoisoindolin-5-yl)-4-methylbenzamide] | < 1000 nM |
| Cc1cccc(C(=O)Nc2ccc3c(c2)CN(C2CCC(=O)NC2=O)C3=O)c1 (stereo not shown) [Compound 3, N-(2-(2,6-dioxopiperidin-3-yl)-1-oxoisoindolin-5-yl)-3-methylbenzamide] | 1000 to 10000 nM |
| O=C1CCC(N2Cc3cc(NC(=O)c4ccccc4)ccc3C2=O)C(=O)N1 (stereo not shown) [Compound 4, N-(2-(2,6-dioxopiperidin-3-yl)-1-oxoisoindolin-5-yl)benzamide] | < 1000 nM |
| O=C1CCC(N2Cc3cc(NC(=O)c4ccc(F)cc4)ccc3C2=O)C(=O)N1 (stereo not shown) [Compound 5, N-(2-(2,6-dioxopiperidin-3-yl)-1-oxoisoindolin-5-yl)-4-fluorobenzamide] | 1000 to 10000 nM |
| O=C1CCC(N2Cc3cc(NC(=O)c4cccnc4)ccc3C2=O)C(=O)N1 (stereo not shown) [Compound 6, N-(2-(2,6-dioxopiperidin-3-yl)-1-oxoisoindolin-5-yl)nicotinamide] | 1000 to 10000 nM |
| O=C1CCC(N2Cc3cc(NC(=O)c4ccncc4)ccc3C2=O)C(=O)N1 (stereo not shown) [Compound 7, N-(2-(2,6-dioxopiperidin-3-yl)-1-oxoisoindolin-5-yl)isonicotinamide] | 1000 to 10000 nM |
| O=C1CCC(N2Cc3cc(NC(=O)c4cccc(F)c4)ccc3C2=O)C(=O)N1 (stereo not shown) [Compound 8, N-(2-(2,6-dioxopiperidin-3-yl)-1-oxoisoindolin-5-yl)-3-fluorobenzamide] | 1000 to 10000 nM |
| N#Cc1cccc(C(=O)Nc2ccc3c(c2)CN(C2CCC(=O)NC2=O)C3=O)c1 (stereo not shown) [Compound 9, 3-cyano-N-(2-(2,6-dioxopiperidin-3-yl)-1-oxoisoindolin-5-yl)benzamide] | < 1000 nM |
| O=C1CCC(N2Cc3cc(NC(=O)c4ccccc4C(F)(F)F)ccc3C2=O)C(=O)N1 (stereo not shown) [Compound 10, N-(2-(2,6-dioxopiperidin-3-yl)-1-oxoisoindolin-5-yl)-2-(trifluoromethyl)benzamide] | < 1000 nM |
| COc1cccc(C(=O)Nc2ccc3c(c2)CN(C2CCC(=O)NC2=O)C3=O)c1 (stereo not shown) [Compound 11, N-(2-(2,6-dioxopiperidin-3-yl)-1-oxoisoindolin-5-yl)-3-methoxybenzamide] | < 1000 nM |
| O=C1CCC(N2Cc3cc(NC(=O)c4cccc(C(F)(F)F)c4)ccc3C2=O)C(=O)N1 (stereo not shown) [Compound 12, N-(2-(2,6-dioxopiperidin-3-yl)-1-oxoisoindolin-5-yl)-3-(trifluoromethyl)benzamide] | < 1000 nM |
| O=C1CCC(N2Cc3cc(NC(=O)c4ccc(Cl)cc4)ccc3C2=O)C(=O)N1 (stereo not shown) [Compound 13, 4-chloro-N-(2-(2,6-dioxopiperidin-3-yl)-1-oxoisoindolin-5-yl)benzamide] | < 1000 nM |
| O=C1CCC(N2Cc3cc(NC(=O)c4ccc(Cl)cc4)ccc3C2=O)C(=O)N1 (stereo not shown) [Compound 14, 4-chloro-N-(2-(2,6-dioxopiperidin-3-yl)-1-oxoisoindolin-5-yl)benzamide] | 1000 to 10000 nM |
| O=C1CCC(N2Cc3cc(NC(=O)c4ccc(C(F)(F)F)cc4)ccc3C2=O)C(=O)N1 (stereo not shown) [Compound 15, N-(2-(2,6-dioxopiperidin-3-yl)-1-oxoisoindolin-5-yl)-4-(trifluoromethyl)benzamide] | < 1000 nM |
| O=C1CCC(N2Cc3cc(C(=O)Nc4ccc(F)cc4)ccc3C2=O)C(=O)N1 (stereo not shown) [Compound 16, 2-(2,6-dioxopiperidin-3-yl)-N-(4-fluorophenyl)-1-oxoisoindoline-5-carboxamide] | 1000 to 10000 nM |

| SMILES | IC50 |
| --- | --- |
| Cc1ccc(NC(=O)Nc2ccc3c(c2)CN(C2CCC(=O)NC2=O)C3=O)cc1 (stereo not shown) [Compound 17, 1-(2-(2,6-dioxopiperidin-3-yl)-1-oxoisoindolin-5-yl)-3-(p-tolyl)urea] | 1000 to 10000 nM |
| CN(C(=O)c1ccccc1)c1ccc2c(c1)CN(C1CCC(=O)NC1=O)C2=O (stereo not shown) [Compound 18, N-(2-(2,6-dioxopiperidin-3-yl)-1-oxoisoindolin-5-yl)-N-methylbenzamide] | 1000 to 10000 nM |
| Cc1ccc2c(Nc3ccc4c(c3)CN(C3CCC(=O)NC3=O)C4=O)noc2c1 (stereo not shown) [Compound 19, 3-(5-((6-methylbenzo[d]isoxazol-3-yl)amino)-1-oxoisoindolin-2-yl)piperidine-2,6-dione] | < 1000 nM |
| Cc1ccc(C(=O)Nc2ccc3c(c2)CN(C2CCC(=O)NC2=O)C3=O)cn1 (stereo not shown) [Compound 20, N-(2-(2,6-dioxopiperidin-3-yl)-1-oxoisoindolin-5-yl)-6-methylnicotinamide] | 1000 to 10000 nM |
| O=C1CCC(N2Cc3cc(NC(=O)c4ccc(-c5ccn[nH]5)cc4)ccc3C2=O)C(=O)N1 (stereo not shown) [Compound 21, N-(2-(2,6-dioxopiperidin-3-yl)-1-oxoisoindolin-5-yl)-4-(1H-pyrazol-5-yl)benzamide] | 1000 to 10000 nM |
| CC(C)(O)c1ccc(C(=O)Nc2ccc3c(c2)CN(C2CCC(=O)NC2=O)C3=O)cc1 (stereo not shown) [Compound 22, N-(2-(2,6-dioxopiperidin-3-yl)-1-oxoisoindolin-5-yl)-4-(2-hydroxypropan-2-yl)benzamide] | 1000 to 10000 nM |
| O=C1CCC(N2Cc3cc(NC(=O)c4ccccc4Oc4ccccc4)ccc3C2=O)C(=O)N1 (stereo not shown) [Compound 23, N-(2-(2,6-dioxopiperidin-3-yl)-1-oxoisoindolin-5-yl)-2-phenoxybenzamide] | < 1000 nM |
| O=C1CCC(N2Cc3cc(NC(=O)Cc4ccc(O)cc4)ccc3C2=O)C(=O)N1 (stereo not shown) [Compound 24, N-(2-(2,6-dioxopiperidin-3-yl)-1-oxoisoindolin-5-yl)-2-(4-hydroxyphenyl)acetamide] | < 1000 nM |
| O=C1CCC(N2Cc3cc(NC(=O)Cc4ccccc4Br)ccc3C2=O)C(=O)N1 (stereo not shown) [Compound 25, 2-(2-bromophenyl)-N-(2-(2,6-dioxopiperidin-3-yl)-1-oxoisoindolin-5-yl)acetamide] | < 1000 nM |
| O=C1CCC(N2Cc3cc(NC(=O)c4[nH]c5ccccc5c4Cl)ccc3C2=O)C(=O)N1 (stereo not shown) [Compound 26, 3-chloro-N-(2-(2,6-dioxopiperidin-3-yl)-1-oxoisoindolin-5-yl)-1H-indole-2-carboxamide] | > 10000 nM |
| O=C1CCC(N2Cc3cc(NC(=O)c4ccc5nc[nH]c5c4)ccc3C2=O)C(=O)N1 (stereo not shown) [Compound 27, N-(2-(2,6-dioxopiperidin-3-yl)-1-oxoisoindolin-5-yl)-1H-benzo[d]imidazole-6-carboxamide] | < 1000 nM |
| CC(N)c1ccc(C(=O)Nc2ccc3c(c2)CN(C2CCC(=O)NC2=O)C3=O)cc1 (stereo not shown) [Compound 29, 4-(1-aminoethyl)-N-(2-(2,6-dioxopiperidin-3-yl)-1-oxoisoindolin-5-yl)benzamide] | 1000 to 10000 nM |
| NC1(c2ccc(C(=O)Nc3ccc4c(c3)CN(C3CCC(=O)NC3=O)C4=O)cc2)CCC1 (stereo not shown) [Compound 30, 4-(1-aminocyclobutyl)-N-(2-(2,6-dioxopiperidin-3-yl)-1-oxoisoindolin-5-yl)benzamide] | 1000 to 10000 nM |
| CN1CCN(Cc2ccc(C(=O)Nc3ccc4c(c3)CN(C3CCC(=O)NC3=O)C4=O)cc2)CC1 (stereo not shown) [Compound 31] | 1000 to 10000 nM |
| O=C1CCC(N2Cc3cc(NC(=O)c4ccc(CN5CCOCC5)cc4)ccc3C2=O)C(=O)N1 (stereo not shown) [Compound 32, N-(2-(2,6-dioxopiperidin-3-yl)-1-oxoisoindolin-5-yl)-4-(morpholinomethyl)benzamide] | 1000 to 10000 nM |
